In article PMC12575627 (Nature Communications, 2025):

Experiments:
Test in all cases: […]CABP radioligand binding
Assay type in all cases: biochemical
Conditions in all cases: labelled compound, E. coli soluble protein
Rr^cL2 = target: T1, Rr^cL2 (Rhodospirillum rubrum, UniProt P04718)
T1 sequence (P04718 1-466): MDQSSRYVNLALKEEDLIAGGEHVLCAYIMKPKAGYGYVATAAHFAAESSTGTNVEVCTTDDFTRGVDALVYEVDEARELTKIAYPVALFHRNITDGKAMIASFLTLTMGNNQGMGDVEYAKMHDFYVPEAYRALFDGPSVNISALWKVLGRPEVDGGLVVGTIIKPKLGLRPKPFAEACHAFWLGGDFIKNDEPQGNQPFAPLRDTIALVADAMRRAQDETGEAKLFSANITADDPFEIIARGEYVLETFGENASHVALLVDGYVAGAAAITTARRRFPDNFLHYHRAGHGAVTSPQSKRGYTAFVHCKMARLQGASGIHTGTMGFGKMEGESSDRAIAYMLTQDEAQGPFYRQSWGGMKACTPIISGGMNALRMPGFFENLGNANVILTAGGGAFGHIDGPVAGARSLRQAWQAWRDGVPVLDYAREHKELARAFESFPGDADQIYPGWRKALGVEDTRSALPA

RrL^c2 = target: T2, RrL^c2 (Rhodospirillum rubrum, UniProt P04718)
T2 sequence (P04718 1-466): T1 sequence (P04718 1-466)

RrRubisco (RrL2) = target: T3, RrRubisco (RrL2) (Rhodospirillum rubrum, UniProt P04718)
T3 sequence (P04718 1-466): T1 sequence (P04718 1-466)

Question: Which “14CABP radioligand binding (active-site quantification)” value (from here on “14CABP radioligand binding”) (Rr^cL2) does the source give for `O=C(O)[C@@](O)(COP(=O)(O)O)[C@H](O)[C@H](O)COP(=O)(O)O` [14CABP] here?
Answer: CLP tagging to RbcL was found to have no measurable impact on RrRubisco formation

Question: What about the “14CABP radioligand binding” value (RrL^c2) of the same compound?
Answer: CLP tagging to RbcL was found to have no measurable impact on RrRubisco formation

Question: And the “14CABP radioligand binding” value (RrRubisco (RrL2))?
Answer: CLP tagging to RbcL was found to have no measurable impact on RrRubisco formation
